# Measurements taken from ChEMBL document CHEMBL1201862, “PubChem BioAssay data set” (2004).
# Active and inactive are the calls of the source.
# Assays:
# [1] = molecular target: 1-phosphatidylinositol 4,5-bisphosphate phosphodiesterase gamma-1 (Homo sapiens, UniProt P19174); test: Counterscreen for inhibitors of phospholipase C isozymes (PLC-B3): Fluorescence-based biochemical high throughput dose response assay to identify inhibitors of phospholipase C isozymes (PLC-gamma1).
# [2] = molecular target: 1-phosphatidylinositol 4,5-bisphosphate phosphodiesterase beta-3 (Homo sapiens, UniProt Q01970); test: Fluorescence-based biochemical high throughput dose response assay to identify inhibitors of phospholipase C isozymes (PLC-B3).
# [3] = molecular target: T1, Cytochrome P450 1A2 (Homo sapiens, UniProt P05177);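 further: PubChem cytochrome P450 panel assay, CYP1A2 panel member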
# T1 sequence (P05177 whole entry): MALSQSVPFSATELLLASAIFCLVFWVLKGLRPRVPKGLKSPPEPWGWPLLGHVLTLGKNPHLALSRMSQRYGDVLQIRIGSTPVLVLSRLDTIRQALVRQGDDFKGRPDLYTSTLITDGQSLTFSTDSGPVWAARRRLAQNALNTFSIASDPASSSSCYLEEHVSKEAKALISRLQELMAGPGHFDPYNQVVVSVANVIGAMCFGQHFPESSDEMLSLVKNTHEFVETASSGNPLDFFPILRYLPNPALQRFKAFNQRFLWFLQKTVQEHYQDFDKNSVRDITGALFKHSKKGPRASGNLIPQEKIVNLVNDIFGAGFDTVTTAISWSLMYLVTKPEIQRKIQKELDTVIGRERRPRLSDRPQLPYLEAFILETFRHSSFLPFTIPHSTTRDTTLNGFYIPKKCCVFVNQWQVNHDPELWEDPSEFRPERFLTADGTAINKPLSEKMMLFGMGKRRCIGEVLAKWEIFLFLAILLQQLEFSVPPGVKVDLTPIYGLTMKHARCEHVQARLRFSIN
# [4] = molecular target: Cytochrome P450 2C9 (Homo sapiens, UniProt P11712)
# [5] = reduced cellular PGC1a acetyl-lysine signal – cell-based, cherry-picked samples, dose response (AID 720514); assay type: functional;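 further: potency may reflect raised or lowered acetylation signal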
# [6] = molecular target: Protein Tat (Human immunodeficiency virus type 1 group M subtype B (isolate HXB2)(HIV-1), UniProt P04608); assay type: functional;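 further: tat binding to TAR RNA read out by fluorescence polarization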
# Protein Tat, sequence (P04608 whole entry): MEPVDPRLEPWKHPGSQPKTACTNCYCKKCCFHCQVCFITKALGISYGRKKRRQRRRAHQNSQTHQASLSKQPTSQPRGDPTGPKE
# [7] = molecular target: fMet-Leu-Phe receptor (Homo sapiens, UniProt P21462); test: formyl peptide receptor binders – dose response (AID 519); assay type: functional
# fMet-Leu-Phe receptor, sequence (P21462 whole entry): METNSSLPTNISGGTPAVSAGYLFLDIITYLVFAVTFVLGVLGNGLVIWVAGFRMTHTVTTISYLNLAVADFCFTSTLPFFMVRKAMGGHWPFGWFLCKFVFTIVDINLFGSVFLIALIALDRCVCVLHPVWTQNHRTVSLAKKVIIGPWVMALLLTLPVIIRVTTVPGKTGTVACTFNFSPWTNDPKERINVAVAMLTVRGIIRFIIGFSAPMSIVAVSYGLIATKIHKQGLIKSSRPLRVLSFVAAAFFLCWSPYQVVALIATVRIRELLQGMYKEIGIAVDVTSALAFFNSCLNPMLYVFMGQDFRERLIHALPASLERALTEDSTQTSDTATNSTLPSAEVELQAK
# [8] = molecular target: Cytochrome P450 2D6 (Homo sapiens, UniProt P10635);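 further: CYP2D6 member of a cytochrome P450 panel assay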
# [9] = cells; conditions: HEK293
# [10] = growth inhibition of yeast DHODH-expressing 3D7 parasites – SYBR Green, dry powder samples, dose response (AID 1159570); assay type: functional, cell-based;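 further: parasite growth measured after 72 hours of compound exposure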
# [11] = toxicity to human HepG2 hepatoma cells – cell-based, plate reader, dry powder samples, cytotoxicity control, dose response (AID 1159569); assay type: functional;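 further: inhibitor potency with signal falling toward the positive control level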
# [12] = P. falciparum Dd2 growth inhibitors, dose response, SYBR Green, cherry-picked samples (AID 1159567); assay type: functional, cell-based
# [13] = Dd2 malaria parasite growth inhibition potency – SYBR Green, dry powder samples, dose response (AID 1159566); assay type: functional, cell-based;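 further: potency for growth inhibition with lower SYBR green DNA signal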
# [14] = growth inhibition of PfATP4-mutant resistant parasites – NITD609-resistant line, SYBR Green, dry powder, dose response (AID 1159571); assay type: functional, cell-based;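 further: parasites synchronized at ring stage by sorbitol before testing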
# [15] = Luminescence-based cell-based high throughput dose response assay to identify activators of the DAF-12 from the parasite S. stercoralis (ssDAF-12).; assay type: functional
# [16] = molecular target: T2, Oxysterols receptor LXR-beta (Homo sapiens, UniProt P55055); test: LXR agonists, Gal4 luciferase reporter, dose response, counter-screen for ssDAF-12 agonist project, cell-based, luminescence, HEK293, S. stercoralis campaign (AID 720737); assay type: functional; conditions: read-out: IC50 (the source's name)
# T2 sequence (P55055 whole entry): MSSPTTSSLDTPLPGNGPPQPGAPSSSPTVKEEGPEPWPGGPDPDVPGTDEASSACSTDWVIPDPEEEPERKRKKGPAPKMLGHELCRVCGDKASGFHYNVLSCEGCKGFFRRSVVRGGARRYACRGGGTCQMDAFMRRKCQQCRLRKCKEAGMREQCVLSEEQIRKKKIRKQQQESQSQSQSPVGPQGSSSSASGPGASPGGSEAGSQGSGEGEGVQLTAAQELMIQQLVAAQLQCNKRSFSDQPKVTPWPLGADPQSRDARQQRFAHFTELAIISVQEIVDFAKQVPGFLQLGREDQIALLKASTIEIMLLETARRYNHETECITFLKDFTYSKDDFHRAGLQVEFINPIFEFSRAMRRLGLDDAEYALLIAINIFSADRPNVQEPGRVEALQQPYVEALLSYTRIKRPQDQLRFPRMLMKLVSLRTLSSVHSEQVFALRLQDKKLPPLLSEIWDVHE
# [17] = NIH-3T3 fibroblast cytotoxicity, dose response, cytotoxicity control, cell-based, fluorescence, Alamar Blue, secondary assay (AID 2327); assay type: functional;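 further: NIH-3T3 mouse fibroblasts cultured with fluconazole at 8 µg/mL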
# [18] = fluconazole-exposed Candida albicans growth modulators – fluorescence, retest, confirmation (AID 2467); assay type: functional, cell-based
# [19] = molecular target: T3, Serine/threonine-protein phosphatase (Candida dubliniensis (strain CD36 / CBS 7987 / NCPF 3949 / NRRLY-17841) (Yeast), UniProt B9W6M3); test: blockers of CaCl2-induced CDRE-lacZ signaling – S. cerevisiae, luminescence, secondary, dose response (AID 2388); assay type: functional, cell-based;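 further: yeast reporter cells carrying a calcineurin-responsive lacZ construct stimulated with calcium chloride; luminescent beta-galactosidase reporter signal in whole cells rather than isolated phosphatase activity; potency for inhibition where a drop in reporter signal means calcineurin blockade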
# T3 sequence (B9W6M3 whole entry): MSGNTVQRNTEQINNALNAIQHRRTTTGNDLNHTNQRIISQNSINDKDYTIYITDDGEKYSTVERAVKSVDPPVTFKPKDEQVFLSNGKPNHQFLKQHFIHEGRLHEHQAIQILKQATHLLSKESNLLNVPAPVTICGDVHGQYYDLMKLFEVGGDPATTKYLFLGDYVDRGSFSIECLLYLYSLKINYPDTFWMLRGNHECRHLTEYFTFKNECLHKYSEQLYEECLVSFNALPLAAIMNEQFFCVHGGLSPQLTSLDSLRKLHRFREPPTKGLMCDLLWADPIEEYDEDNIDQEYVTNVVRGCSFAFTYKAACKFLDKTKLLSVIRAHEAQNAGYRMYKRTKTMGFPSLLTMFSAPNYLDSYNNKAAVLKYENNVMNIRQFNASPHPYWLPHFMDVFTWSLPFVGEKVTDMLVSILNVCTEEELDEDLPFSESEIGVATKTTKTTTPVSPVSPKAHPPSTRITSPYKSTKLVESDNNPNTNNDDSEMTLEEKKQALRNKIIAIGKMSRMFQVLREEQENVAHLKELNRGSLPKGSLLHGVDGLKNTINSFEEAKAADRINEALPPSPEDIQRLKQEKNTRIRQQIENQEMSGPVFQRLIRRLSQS
# [20] = molecular target: ATP-dependent molecular chaperone HSP82 (Candida albicans (strain WO-1) (Yeast), UniProt C4YTQ8); test: steroid-induced GRE reporter decrease in yeast – S. cerevisiae, luminescence, Hsp90 inhibitor project, dose response (AID 2400); assay type: functional, cell-based;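 further: beta-galactosidase luminescence from glucocorticoid response element reporter as proxy for Hsp90 function; inhibitor potency where signal loss means Hsp90 inhibition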
# [21] = molecular target: RNA-editing ligase 1, mitochondrial (Trypanosoma brucei brucei, UniProt P86926); test: inhibition of trypanosome RNA editing ligase – biochemical, fluorescence, Trypanosoma brucei, dose response (AID 1117295); assay type: functional
# [22] = molecular target: T2, Oxysterols receptor LXR-beta; assay type: functional, cell-based
# [23] = molecular target: Major prion protein (Homo sapiens, UniProt P04156); assay type: functional, cell-based
# [24] = cells
# [25] = molecular target: T4, Voltage-gated N-type calcium channel alpha-1B subunit/Amyloid beta A4 precursor protein-binding family A member 1 (Homo sapiens, UniProt Q00975+Q02410); assay type: protein assay
# T4 sequence (Q00975 whole entry): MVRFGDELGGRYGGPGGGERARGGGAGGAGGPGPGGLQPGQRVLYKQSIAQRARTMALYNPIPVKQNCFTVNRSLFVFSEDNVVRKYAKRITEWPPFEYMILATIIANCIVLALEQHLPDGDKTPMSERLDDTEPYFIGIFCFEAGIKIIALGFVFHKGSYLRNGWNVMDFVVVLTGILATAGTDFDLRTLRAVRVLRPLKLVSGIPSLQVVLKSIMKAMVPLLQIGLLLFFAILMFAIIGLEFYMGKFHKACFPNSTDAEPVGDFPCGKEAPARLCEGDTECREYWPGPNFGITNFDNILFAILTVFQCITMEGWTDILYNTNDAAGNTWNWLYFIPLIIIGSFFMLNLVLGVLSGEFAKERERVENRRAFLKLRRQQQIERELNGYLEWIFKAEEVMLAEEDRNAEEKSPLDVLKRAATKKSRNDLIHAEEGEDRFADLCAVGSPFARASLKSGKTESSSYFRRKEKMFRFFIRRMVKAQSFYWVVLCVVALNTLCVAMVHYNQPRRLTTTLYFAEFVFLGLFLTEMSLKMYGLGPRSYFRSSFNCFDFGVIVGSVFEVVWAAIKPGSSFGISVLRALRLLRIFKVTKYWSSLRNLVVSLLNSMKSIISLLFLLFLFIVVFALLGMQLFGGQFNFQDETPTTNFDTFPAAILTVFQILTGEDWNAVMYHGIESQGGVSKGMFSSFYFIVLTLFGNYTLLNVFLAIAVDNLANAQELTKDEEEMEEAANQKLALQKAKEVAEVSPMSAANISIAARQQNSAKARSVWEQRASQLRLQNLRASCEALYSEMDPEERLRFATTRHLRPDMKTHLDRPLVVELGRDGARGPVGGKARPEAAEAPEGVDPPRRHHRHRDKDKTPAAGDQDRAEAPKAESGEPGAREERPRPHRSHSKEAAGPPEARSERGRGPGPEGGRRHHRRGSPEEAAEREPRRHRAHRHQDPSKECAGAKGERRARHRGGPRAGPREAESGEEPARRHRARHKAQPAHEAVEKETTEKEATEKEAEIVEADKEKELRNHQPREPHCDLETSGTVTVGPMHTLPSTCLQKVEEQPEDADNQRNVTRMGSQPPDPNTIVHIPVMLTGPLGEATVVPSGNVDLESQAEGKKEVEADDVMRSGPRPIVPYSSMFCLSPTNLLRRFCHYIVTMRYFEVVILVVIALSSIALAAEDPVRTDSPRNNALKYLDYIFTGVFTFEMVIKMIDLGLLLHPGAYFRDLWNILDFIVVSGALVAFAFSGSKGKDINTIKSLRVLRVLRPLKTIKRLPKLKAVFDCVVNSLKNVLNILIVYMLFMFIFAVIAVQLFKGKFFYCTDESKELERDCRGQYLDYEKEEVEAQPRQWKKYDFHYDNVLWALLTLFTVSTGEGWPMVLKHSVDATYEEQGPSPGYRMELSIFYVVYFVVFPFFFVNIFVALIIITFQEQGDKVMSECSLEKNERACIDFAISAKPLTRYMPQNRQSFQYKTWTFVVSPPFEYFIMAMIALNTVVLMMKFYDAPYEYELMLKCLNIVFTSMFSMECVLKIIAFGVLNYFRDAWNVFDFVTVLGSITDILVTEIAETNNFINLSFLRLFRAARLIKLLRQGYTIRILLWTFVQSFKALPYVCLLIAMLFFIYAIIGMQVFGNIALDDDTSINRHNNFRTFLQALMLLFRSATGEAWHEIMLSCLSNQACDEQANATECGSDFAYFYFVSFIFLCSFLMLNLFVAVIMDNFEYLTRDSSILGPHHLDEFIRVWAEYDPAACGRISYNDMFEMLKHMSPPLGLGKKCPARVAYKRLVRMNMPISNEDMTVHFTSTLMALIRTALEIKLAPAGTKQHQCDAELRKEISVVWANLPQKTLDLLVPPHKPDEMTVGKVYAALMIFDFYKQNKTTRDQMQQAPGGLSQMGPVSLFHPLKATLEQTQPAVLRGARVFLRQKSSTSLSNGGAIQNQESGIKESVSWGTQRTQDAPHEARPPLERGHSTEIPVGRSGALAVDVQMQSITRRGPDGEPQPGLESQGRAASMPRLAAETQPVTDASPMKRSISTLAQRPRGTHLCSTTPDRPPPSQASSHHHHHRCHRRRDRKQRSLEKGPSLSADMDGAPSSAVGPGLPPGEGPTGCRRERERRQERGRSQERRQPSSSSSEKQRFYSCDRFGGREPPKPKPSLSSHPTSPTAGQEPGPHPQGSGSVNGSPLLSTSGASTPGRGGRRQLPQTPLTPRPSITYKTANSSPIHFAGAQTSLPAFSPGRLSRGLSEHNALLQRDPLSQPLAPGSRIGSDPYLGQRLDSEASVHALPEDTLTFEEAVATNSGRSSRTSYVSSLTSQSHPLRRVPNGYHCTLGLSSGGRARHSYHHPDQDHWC
# T4 sequence (Q02410 whole entry): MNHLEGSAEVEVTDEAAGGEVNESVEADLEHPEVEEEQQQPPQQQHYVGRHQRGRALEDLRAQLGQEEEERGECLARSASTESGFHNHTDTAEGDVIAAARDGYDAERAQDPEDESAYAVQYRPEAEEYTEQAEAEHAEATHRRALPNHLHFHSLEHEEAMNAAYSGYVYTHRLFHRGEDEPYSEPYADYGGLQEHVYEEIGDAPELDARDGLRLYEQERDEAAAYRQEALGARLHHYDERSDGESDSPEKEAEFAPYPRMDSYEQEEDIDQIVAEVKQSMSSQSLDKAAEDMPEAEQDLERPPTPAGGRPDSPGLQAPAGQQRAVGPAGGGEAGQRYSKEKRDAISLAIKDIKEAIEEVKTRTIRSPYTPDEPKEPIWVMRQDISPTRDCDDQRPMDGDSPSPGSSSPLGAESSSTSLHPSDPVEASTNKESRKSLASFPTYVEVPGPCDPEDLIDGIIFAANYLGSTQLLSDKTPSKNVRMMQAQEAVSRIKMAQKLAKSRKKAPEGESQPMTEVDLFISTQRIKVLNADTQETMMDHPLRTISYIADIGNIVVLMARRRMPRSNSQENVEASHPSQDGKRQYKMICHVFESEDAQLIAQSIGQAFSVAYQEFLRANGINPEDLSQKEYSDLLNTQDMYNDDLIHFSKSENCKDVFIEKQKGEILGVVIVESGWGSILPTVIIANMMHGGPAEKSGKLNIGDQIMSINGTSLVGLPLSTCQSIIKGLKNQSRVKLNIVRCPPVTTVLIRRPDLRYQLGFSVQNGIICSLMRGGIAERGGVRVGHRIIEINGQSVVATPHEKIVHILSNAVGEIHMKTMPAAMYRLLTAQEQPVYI
# [26] = molecular target: T4, Voltage-gated N-type calcium channel alpha-1B subunit/Amyloid beta A4 precursor protein-binding family A member 1; assay type: protein assay; remark: listed apart in the source
# [27] = molecular target: T5, Corticotropin-releasing factor receptor 2/Corticotropin-releasing factor-binding protein (Homo sapiens, UniProt P24387+Q13324); test: Dose Response confirmation of uHTS hits for small molecule antagonists of the CRF-binding protein and CRF-R2 receptor complex.; assay type: functional; conditions: read-out: IC50_Mean
# T5 sequence (Q13324 whole entry): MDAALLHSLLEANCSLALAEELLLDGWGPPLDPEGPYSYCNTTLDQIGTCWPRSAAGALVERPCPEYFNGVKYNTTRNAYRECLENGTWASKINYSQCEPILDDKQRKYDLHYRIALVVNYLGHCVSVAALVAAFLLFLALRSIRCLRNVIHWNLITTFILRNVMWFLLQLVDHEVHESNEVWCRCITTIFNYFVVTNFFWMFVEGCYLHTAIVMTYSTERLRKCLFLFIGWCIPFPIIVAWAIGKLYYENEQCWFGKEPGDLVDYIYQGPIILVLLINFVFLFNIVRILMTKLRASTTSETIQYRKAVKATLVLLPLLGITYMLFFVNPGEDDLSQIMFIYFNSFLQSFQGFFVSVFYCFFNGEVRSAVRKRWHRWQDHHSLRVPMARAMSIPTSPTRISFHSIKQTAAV
# T5 sequence (P24387 whole entry): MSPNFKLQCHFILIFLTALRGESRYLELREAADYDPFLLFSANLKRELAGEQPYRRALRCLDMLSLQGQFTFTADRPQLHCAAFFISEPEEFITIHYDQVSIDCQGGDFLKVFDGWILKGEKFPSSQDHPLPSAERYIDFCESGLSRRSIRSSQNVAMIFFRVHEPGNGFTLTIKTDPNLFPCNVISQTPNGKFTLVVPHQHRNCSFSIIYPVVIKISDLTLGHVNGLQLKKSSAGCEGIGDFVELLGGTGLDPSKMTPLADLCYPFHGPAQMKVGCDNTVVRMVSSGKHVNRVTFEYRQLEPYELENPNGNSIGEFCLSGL
# [28] = molecular target: T5, Corticotropin-releasing factor receptor 2/Corticotropin-releasing factor-binding protein; test: activators of CRF receptor 2 with binding protein – uHTS hits, confirmation (AID 602473); assay type: functional; conditions: read-out: EC50_Mean
# [29] = molecular target: Caspase-6 (Homo sapiens, UniProt P55212); test: inhibition of CASP6 peptide cleavage – biochemical, VEID-R110 fluorescence, cherry-pick, dose response (AID 720632)
# [30] = molecular target: NAD-dependent protein deacylase sirtuin-5, mitochondrial (Homo sapiens, UniProt Q9NXA8); test: sirtuin-5 deacylation blockers, concentration series – biochemical, fluorescence imaging, cherry-pick, set 5, dose response (AID 720591);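 further: desuccinylation of succinyl peptide AMC substrate read as fluorescence after trypsin release; potency of inhibitors that lower fluorescence and may act on trypsin instead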
# 1-phosphatidylinositol 4,5-bisphosphate phosphodiesterase gamma-1, sequence (P19174 whole entry): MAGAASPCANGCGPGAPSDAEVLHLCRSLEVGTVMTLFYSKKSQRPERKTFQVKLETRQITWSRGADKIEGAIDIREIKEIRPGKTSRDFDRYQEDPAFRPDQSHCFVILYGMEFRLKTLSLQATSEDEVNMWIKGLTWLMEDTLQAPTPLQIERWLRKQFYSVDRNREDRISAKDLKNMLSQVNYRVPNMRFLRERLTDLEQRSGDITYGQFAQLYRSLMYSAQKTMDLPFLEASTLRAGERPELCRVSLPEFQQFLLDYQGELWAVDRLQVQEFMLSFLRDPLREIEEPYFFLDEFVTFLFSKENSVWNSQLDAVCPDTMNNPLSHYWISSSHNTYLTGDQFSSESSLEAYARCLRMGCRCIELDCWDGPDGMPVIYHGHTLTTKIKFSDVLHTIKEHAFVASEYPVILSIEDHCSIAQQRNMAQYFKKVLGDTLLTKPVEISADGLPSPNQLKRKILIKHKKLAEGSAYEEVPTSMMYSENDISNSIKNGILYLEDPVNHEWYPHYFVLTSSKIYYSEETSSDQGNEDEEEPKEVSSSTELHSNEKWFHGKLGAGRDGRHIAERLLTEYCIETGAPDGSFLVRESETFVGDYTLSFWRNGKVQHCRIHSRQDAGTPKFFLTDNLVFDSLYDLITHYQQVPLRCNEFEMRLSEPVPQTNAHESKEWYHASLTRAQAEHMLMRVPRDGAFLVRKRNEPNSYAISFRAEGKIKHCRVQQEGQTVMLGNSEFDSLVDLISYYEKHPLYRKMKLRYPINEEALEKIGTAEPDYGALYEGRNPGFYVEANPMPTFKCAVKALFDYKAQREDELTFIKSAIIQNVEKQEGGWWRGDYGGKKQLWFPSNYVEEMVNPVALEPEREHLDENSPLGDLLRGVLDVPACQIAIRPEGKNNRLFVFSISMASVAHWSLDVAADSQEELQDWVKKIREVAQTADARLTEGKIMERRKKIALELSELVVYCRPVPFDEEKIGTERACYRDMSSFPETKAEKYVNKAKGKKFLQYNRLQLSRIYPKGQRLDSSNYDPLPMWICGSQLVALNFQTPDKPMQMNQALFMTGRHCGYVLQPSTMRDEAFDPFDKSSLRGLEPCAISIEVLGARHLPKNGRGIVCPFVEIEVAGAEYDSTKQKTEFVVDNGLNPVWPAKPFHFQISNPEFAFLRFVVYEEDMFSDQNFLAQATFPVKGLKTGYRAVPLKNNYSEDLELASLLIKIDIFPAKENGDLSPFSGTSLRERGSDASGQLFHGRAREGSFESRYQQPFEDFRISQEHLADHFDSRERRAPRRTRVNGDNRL
compound,measurement,setting,value
O=C(C[S+]([O-])c1cccc(Cl)c1)Nc1ccccc1Cl (stereo unspecified),IC50,[1],> 122 µM (inactive)
same,IC50,[2],> 122 µM (inactive)
same,AC50,[3],15.8 µM (inconclusive)
same,AC50,[4],inconclusive
Cc1ccc(S(=O)(=O)N2CCCCC2C(=O)O)cc1 (stereo unspecified),AC50,[5],17.6 µM (active)
CC1CCCN(C(=O)CN2CCN(C(=O)c3ccco3)CC2)C1 (stereo unspecified),IC50,[6],> 100 µM (active)
Cc1cc(NC(=O)c2ccc3c(c2)OCO3)ccc1NC(=O)c1ccccc1,IC50,[1],> 122 µM (inactive)
same,IC50,[2],> 122 µM (inactive)
CCOC(=O)c1ccc(NC(=O)Nc2ccc3c4c(cccc24)C(=O)N3CC)cc1,Ki,[7],> 66.7 µM (inactive)
same,AC50,[8],17.8 µM (inconclusive)
CCn1cc(C(=O)NC2CCC(C)CC2)c(=O)c2cc(S(=O)(=O)N3CCCCC3)ccc21 (stereo unspecified),Ki,[7],> 66.7 µM (inactive)
COc1cc(/C=C(\C#N)C(=O)NC(C)C)cc(Cl)c1O,AC50,[9],50.3 µM (active)
COc1ccc(C#Cc2ccc([C@@H]3[C@@H](CO)N4C(=O)CN(C(=O)c5ccccc5)C[C@H]34)cc2)cc1,AC50,[10],1.99 µM (active)
same,AC50,[11],33.4 µM (active)
same,AC50,[12],2.48 µM (active)
same,AC50,[13],1.63 µM (active)
same,AC50,[14],1.35 µM (active)
O=c1oc(-c2cc3ccccc3o2)nc2sc3c(c12)CCCC3,IC50,[15],> 67.5 µM (inactive)
same,EC50,[16],> 67.5 µM (inactive)
Cc1ccc(-n2nc(C)c3c(C)cc(O)nc32)cc1,EC50,[17],> 150 µM (inactive)
same,EC50,[18],1.54 µM (active)
same,EC50,[19],> 180 µM (inactive)
same,EC50,[20],> 150 µM (inactive)
same,IC50,[15],> 67.5 µM (inactive)
same,EC50,[16],> 67.5 µM (inactive)
C#CCOCCOCCOCCNc1nc(N2CCN(C(=O)[C@H](CCCCN)n3cc([C@@H](N)C(C)CC)nn3)CC2)nc(N2CCN(C(=O)[C@H](CCCCN)n3cc([C@@H](N)C(C)CC)nn3)CC2)n1 (stereo partly specified),IC50,[21],> 96.6 µM (inactive)
Brc1ccc(-c2noc(-c3ccccn3)n2)o1,EC50,[22],> 67.5 µM (inactive)
COC(=O)C1=C(C)N(C)C(NCc2ccccc2C(F)(F)F)=NC1c1cccc(F)c1 (stereo unspecified),IC50,[21],> 96.6 µM (inactive)
Cc1ccc(NS(=O)(=O)c2cc(C(=O)NCc3ccccn3)ccc2Cl)cc1C,IC50,[23],13 µM (inactive)
same,IC50,[24],> 138 µM (inactive)
COc1cc2c(cc1OC)-c1cc(Nc3ccc(C(=O)O)cc3)nc(=O)n1CC2,IC50,[25],17.6 µM (active)
same,IC50,[26],> 50 µM (inactive)
same,IC50,[27],> 47.1 µM (inactive)
same,EC50,[28],> 53 µM (inactive)
same,AC50,[29],28.9 µM (active)
same,AC50,[30],4.29 µM (active)
